From ChEMBL document CHEMBL3817835, “Progress in the development of small molecules as new human A3adenosine receptor ligands based on the 3-thiophenylcoumarin core” (Medchemcomm, 2016)

Assays:
Adenosine receptor A2a = Adenosine receptor A2a (Homo sapiens, UniProt P29274); assay: Displacement of [3H]NECA from human A2A adenosine receptor expressed in CHO cells; assay type: cell-based
Adenosine receptor A2b = target: T1, Adenosine receptor A2b (Homo sapiens, UniProt P29275); assay: Antagonist activity at human A2B adenosine receptor assessed as inhibition of NECA-stimulated adenylyl cyclase activity; assay type: functional
T1 sequence (P29275 whole entry): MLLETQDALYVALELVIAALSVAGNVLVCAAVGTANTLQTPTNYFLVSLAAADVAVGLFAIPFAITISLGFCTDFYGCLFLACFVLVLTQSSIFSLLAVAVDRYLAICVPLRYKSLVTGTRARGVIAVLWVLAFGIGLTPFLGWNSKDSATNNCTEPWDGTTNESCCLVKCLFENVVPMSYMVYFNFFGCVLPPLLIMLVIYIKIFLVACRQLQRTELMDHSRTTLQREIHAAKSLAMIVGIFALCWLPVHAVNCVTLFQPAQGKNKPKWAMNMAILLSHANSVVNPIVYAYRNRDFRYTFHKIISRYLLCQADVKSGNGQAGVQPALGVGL

Adenosine receptor A3 = Adenosine receptor A3 (Homo sapiens, UniProt P0DMS8); assay: Displacement of [3H]HEMADO from human A3 adenosine receptor expressed in CHO cells; assay type: cell-based
Adenosine receptor A1 = target: T2, Adenosine receptor A1 (Homo sapiens, UniProt P30542); assay: Displacement of [3H]CCPA from human A1 adenosine receptor expressed in CHO cells; assay type: cell-based
T2 sequence (P30542 whole entry): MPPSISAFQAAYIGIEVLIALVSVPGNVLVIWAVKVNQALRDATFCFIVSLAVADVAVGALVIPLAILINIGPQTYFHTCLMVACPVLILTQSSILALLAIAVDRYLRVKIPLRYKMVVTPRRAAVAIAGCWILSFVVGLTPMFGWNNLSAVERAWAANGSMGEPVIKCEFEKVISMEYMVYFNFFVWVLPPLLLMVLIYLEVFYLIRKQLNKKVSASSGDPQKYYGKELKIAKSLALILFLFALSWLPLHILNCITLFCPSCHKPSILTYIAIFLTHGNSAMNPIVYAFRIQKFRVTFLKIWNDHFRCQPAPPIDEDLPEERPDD

Homo sapiens = organism: Homo sapiens; assay: Selectivity index, ratio of Ki for human A2 adenosine receptor to Ki for human A3 adenosine receptor
[1] = target: Adenosine receptors; A1 & A3 (Homo sapiens) (UniProt P30542+P0DMS8); assay: Selectivity index, ratio of Ki for human A1 adenosine receptor to Ki for human A3 adenosine receptor

Sequence of Adenosine receptor A2a (P29274 whole entry): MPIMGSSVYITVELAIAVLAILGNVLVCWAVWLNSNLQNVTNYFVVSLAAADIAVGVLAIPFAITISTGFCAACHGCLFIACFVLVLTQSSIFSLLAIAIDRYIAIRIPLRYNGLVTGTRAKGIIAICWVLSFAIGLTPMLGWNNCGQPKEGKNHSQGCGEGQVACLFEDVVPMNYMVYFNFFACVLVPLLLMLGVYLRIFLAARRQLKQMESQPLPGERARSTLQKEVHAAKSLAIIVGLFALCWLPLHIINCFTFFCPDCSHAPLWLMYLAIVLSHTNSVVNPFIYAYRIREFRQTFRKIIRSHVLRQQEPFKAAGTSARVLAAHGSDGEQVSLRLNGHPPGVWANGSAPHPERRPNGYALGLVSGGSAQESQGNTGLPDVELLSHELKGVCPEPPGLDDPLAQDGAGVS
Sequence of Adenosine receptor A3 (P0DMS8 whole entry, looked up): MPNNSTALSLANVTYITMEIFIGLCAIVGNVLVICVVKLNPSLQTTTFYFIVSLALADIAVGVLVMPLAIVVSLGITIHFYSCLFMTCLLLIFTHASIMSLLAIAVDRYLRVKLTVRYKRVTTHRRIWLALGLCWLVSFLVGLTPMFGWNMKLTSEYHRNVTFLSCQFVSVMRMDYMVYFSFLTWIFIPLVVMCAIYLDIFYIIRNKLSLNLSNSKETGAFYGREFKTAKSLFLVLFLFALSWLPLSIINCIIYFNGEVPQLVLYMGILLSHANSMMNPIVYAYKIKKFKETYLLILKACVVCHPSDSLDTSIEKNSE

Row | Compound | Ki (Adenosine receptor A2a) | Ki (Adenosine receptor A2b) | Ki (Adenosine receptor A3) | Ki (Adenosine receptor A1) | Ratio Ki (Homo sapiens) | Ratio Ki [1]
1 | CC(=O)Oc1cccc2cc(-c3ccsc3)c(=O)oc12 | 14.7 µM | > 30 µM | 1.82 µM | > 100 µM |  | 
2 | O=c1oc2c(O)c(O)ccc2cc1-c1ccsc1 | 14.7 µM | > 30 µM | 5.31 µM | 3.36 µM |  | 
3 | CC(=O)Oc1ccc2cc(-c3cc(Br)cs3)c(=O)oc2c1OC(C)=O | > 100 µM | > 30 µM | > 100 µM | > 100 µM |  | 
4 | O=c1oc2c(O)cccc2cc1-c1cc(Br)cs1 | > 100 µM | > 30 µM | 0.746 µM | > 100 µM | 130 | 130
5 | O=c1oc2c(O)c(O)ccc2cc1-c1cc(Br)cs1 | 12.2 µM | > 30 µM | 3.4 µM | 16.3 µM |  | 
6 | CC(=O)Oc1cccc2cc(-c3cc(Br)cs3)c(=O)oc12 | > 100 µM | > 30 µM | 4.08 µM | > 100 µM |  | 
7 | O=c1oc2c(O)cccc2cc1-c1cccs1 | 7.48 µM | > 30 µM | 1.43 µM | 3.36 µM |  | 

Now from value to compound:

Row | Ki (Adenosine receptor A2a) | Ki (Adenosine receptor A2b) | Ki (Adenosine receptor A3) | Ki (Adenosine receptor A1) | Ratio Ki (Homo sapiens) | Ratio Ki [1] | Compound
8 | 9.87 µM | > 30 µM | 2.87 µM | 5.92 µM |  |  | O=c1oc2c(O)cccc2cc1-c1ccsc1
9 | 20.6 µM | > 30 µM | 3.6 µM | > 100 µM |  |  | CC(=O)Oc1ccc2cc(-c3ccsc3)c(=O)oc2c1OC(C)=O
10 | 18.8 µM | > 30 µM | 2.58 µM | > 100 µM |  |  | CC(=O)Oc1cccc2cc(-c3cccs3)c(=O)oc12
11 | 9.98 µM | > 30 µM | 4.83 µM | 3.23 µM |  |  | O=c1oc2c(O)c(O)ccc2cc1-c1cccs1
12 | > 100 µM | > 30 µM | 22.5 µM | > 100 µM |  |  | CC(=O)Oc1ccc2cc(-c3cccs3)c(=O)oc2c1OC(C)=O
